{"source": "patent EP1154795B1", "about": "“MEANS FOR TREATING AND DIAGNOSING RESTLESS LEGS SYNDROME” (priority 1998, dated 2000)", "system": "patients with light to moderate RLS/PMLS", "assay": "Double-blind, placebo controlled parallel group study with donepezil", "format": "in vivo", "from_the_text": "Double-blind, placebo controlled parallel group study with donepezil. In a double-blind, placebo controlled parallel study with the CEI donepezil we studied 9 patients with light to moderate RLS/PMLS (PLM index, PLMI = 3-17).", "key": {"[1]": {"conditions": "5mg once daily, evening dose for 21 days"}}}
{"smiles": "COc1cc2c(cc1OC)C(=O)C(CC1CCN(Cc3ccccc3)CC1)C2", "note": "(stereo not drawn) [Donepezil, donepezil]", "values": [{"measurement": "change in total sleep time after treatment", "setting": "[1]", "result": "no significant change"}, {"measurement": "increase of the proportion of rapid eye movement sleep after treatment", "setting": "[1]", "result": "approximately 30%"}, {"measurement": "side effects during the study period", "setting": "[1]", "result": "No side effects were reported"}, {"measurement": "mean reduction of PLMI", "setting": "5mg once daily, evening dose for 21 days, from 8.3 to 5.3", "result": "approximately 36%"}, {"measurement": "Marked reduction of PLMI (reduction in 5 patients)", "setting": "5 of 9 patients, minor change in 3 patients, one patient increased PLMI, 5mg once daily for 21 days", "result": "57-100%"}, {"measurement": "mean PLMI after treatment", "setting": "9 patients (PLMI = 3-17), 5mg once daily, evening dose for 21 days, mean PLMI reduced from 8.3", "result": 5.3}]}
